Measured values as given in the OligoGym collection.
Where “and” joins values, the source holds several entries; their conditions need not be identical. Identical values can stand only once. After the bases stand the sugars from the 5' end (letter, count) and the backbone: PS all phosphorothioate, else s phosphorothioate and o phosphodiester by linkage. Methylation of C is not given here. e = 2'-O-(2-methoxyethyl) (MOE); k = constrained ethyl (cEt); d = 2'-deoxy (DNA)

Biological target: IRF4
Conditions: ASO

Sequence	target mRNA inhibition (SK-MEL-28, 4 µM)	target mRNA inhibition (MM.1R, 1 µM)	further results
TATGGCTAAACCTGGC (sugars k3 d10 k3, PS)	43%	–	–
GCAATGAACGGAAGTT (sugars k3 d10 k3, PS)	45%	–	–
CTTGATAAAGGCTGAA (sugars kkdddddddddkdkdk, PS)	–	1%	–
GACATACCTACAAGCA (sugars k3 d10 k3, PS)	50%	–	–
AGTATGAGAAACGGCC (sugars k3 d10 k3, PS)	62%	–	–
GAAACCCTCATCACCG (sugars k3 d10 k3, PS)	–	-38%	–
GGCTATCAGGATCTCA (sugars k3 d10 k3, PS)	45%	–	–
TTGATGTGATAGCTGA (sugars kkdddddddddkekek, PS)	–	24%	–
TGTTACTTTCAAATCG (sugars k3 d10 k3, PS)	48%	–	–
CTAGAGGTGCCTTCTT (sugars k3 d10 k3, PS)	26%	–	–
AGTGATGTCAGGTTTT (sugars k3 d10 k3, PS)	72%	–	–
ACAGGCACGGCTTCAG (sugars k3 d10 k3, PS)	64%	–	–
CTTGTCTCGCCGCAAT (sugars k3 d10 k3, PS)	65% and 47%	–	–
AAAGAGTGGTACACCT (sugars k3 d10 k3, PS)	–	10%	–
AGTAAACTTGGCTGTG (sugars k3 d10 k3, PS)	38%	–	–
AGTGATGTCAGGTTTT (sugars kdddddddddkekeke, PS)	–	40%	–
TTATATACTGGTTGGT (sugars kddddddddddkekek, PS)	–	22%	–
AGTTGTAAATGAGTCG (sugars kkdddddddddkdkdk, PS)	–	39%	–
GTAAGATCTCCATGGT (sugars k3 d10 k3, PS)	–	17%	–
GCAGTGATGTCAGGTT (sugars kkkddddddddkekek, PS)	–	36%	–
TCTATAGTGTTCCAGG (sugars kkddddddddddkeke, PS)	–	66%	target mRNA inhibition (MM.1R, 0.074 µM): 15%; target mRNA inhibition (MM.1R, 0.222 µM): 32%; target mRNA inhibition (MM.1R, 0.666 µM): 58%; target mRNA inhibition (MM.1R, 2 µM): 83%
GAAGCATTTTATCATC (sugars kkdddddddddkdkdk, PS)	–	1%	–
CAACAGAGCTGAGAGT (sugars k3 d10 k3, PS)	20%	–	–
GACAGAAGATCTCTAC (sugars k3 d10 k3, PS)	17%	–	–
AAGTTCATGTAAAGTC (sugars kkdddddddddkdkdk, PS)	–	32% and 34%	–

Sequence	target mRNA inhibition (SK-MEL-28, 4 µM)	target mRNA inhibition (MM.1R, 1 µM)	further results
GGAGGATCATAAAGGA (sugars k3 d10 k3, PS)	–	32%	–
ATCTATAAGATGTATA (sugars k4 d8 k4, PS)	36%	–	–
GAAAAGAGCCGCCACA (sugars k3 d10 k3, PS)	7%	–	–
GCCAAGGAGGCGGGCC (sugars k3 d10 k3, PS)	–	-2%	–
CTCTACTGGAGTCAAG (sugars k3 d10 k3, PS)	25%	–	–
AGAACTTGCTAAGTCT (sugars k3 d10 k3, PS)	–	-34%	–
TATCAAGACAAGGAAT (sugars k3 d10 k3, PS)	7%	–	–
CAAGCAGTGATGTCAG (sugars kkdddddddddkekek, PS)	–	51% and 52%	–
AAGCATTTTATCATCC (sugars k2 d9 e3 k2, PS)	–	21%	–
GACACTTTTAGAGAGG (sugars kkdddddddddkekek, PS)	–	17%	–
GATGCTCAGAATGAAG (sugars k3 d10 k3, PS)	43%	–	–
ACTGTTACCGATGCTT (sugars kkdddddddddekeke, PS)	–	23% and 37%	–
AAGTTTACACTGGATC (sugars k3 d10 k3, PS)	58%	–	–
GTAGTATGAGAAACGG (sugars kkdddddddddkekek, PS)	–	50%	–
GCCTTCTCGGAACTTT (sugars k3 d10 k3, PS)	32%	–	–
TTCCAACAATAGCAAC (sugars k3 d10 k3, PS)	46%	–	–
TCTTTTTAGTTCATAC (sugars k3 d10 k3, PS)	26%	–	–
CTCTATAGTGTTCCAG (sugars kdddddddddkekeke, PS)	–	11%	–
CACTATGGTAGGAGTG (sugars k3 d10 k3, PS)	-12%	–	–
GCATTTTATCATCCGA (sugars kkkdddddddddkeke, PS)	–	32%	–
CTAGATAGCATTCTTA (sugars k3 d10 k3, PS)	39%	–	–
GGCCACATTAGCAATT (sugars k3 d10 k3, PS)	–	0%	–
GATCTCCATGGTGCAG (sugars k3 d10 k3, PS)	–	22% and 12%	–
AGTGTCTAAAGTCCCA (sugars kkdddddddddekeke, PS)	–	18% and 19%	–
GACTATTAGATAAGTA (sugars k3 d10 k3, PS)	29%	–	–

Sequence	target mRNA inhibition (SK-MEL-28, 4 µM)	target mRNA inhibition (MM.1R, 1 µM)	further results
GCGAATGTGCCTTGTG (sugars k3 d10 k3, PS)	–	12%	–
AGTGTAACTGAGGACT (sugars k3 d10 k3, PS)	-7%	–	–
ATAAGAAGCACTGGCA (sugars k3 d10 k3, PS)	51%	–	–
ACGGACGGAGGCGGCA (sugars k3 d10 k3, PS)	11%	–	–
GCAAGCTATATTAAAG (sugars k3 d10 k3, PS)	71%	-19%	target mRNA inhibition (MM.1R, 0.0625 µM): 1%; target mRNA inhibition (MM.1R, 0.074 µM): 17%; target mRNA inhibition (MM.1R, 0.222 µM): 26%; target mRNA inhibition (MM.1R, 0.25 µM): 1%; target mRNA inhibition (MM.1R, 0.666 µM): 41%; target mRNA inhibition (MM.1R, 2 µM): 82%; target mRNA inhibition (MM.1R, 4 µM): 1%
AAGGTCTGAGTTGTAC (sugars k3 d10 k3, PS)	–	20%	–
GTTCCTTTTCAGAGTC (sugars k3 d10 k3, PS)	72%	–	target mRNA inhibition (SK-MEL-28, 0.185 µM): 16% and 4% and 3%
ATAGTAGGTAAGATCT (sugars k3 d10 k3, PS)	-13%	–	–
GTGCAGGAGAGGCTGA (sugars k3 d10 k3, PS)	32%	–	–
GAACGCACGGACGAAC (sugars k3 d10 k3, PS)	18%	–	–
ACTAAGGACAGCTGTG (sugars k3 d10 k3, PS)	15%	–	–
CTTAGAATGAGAGGTG (sugars k3 d10 k3, PS)	–	1%	–
ACTTTTAGAGAGGAGA (sugars k3 d10 k3, PS)	64%	–	–
TGATGTGATAGCTGAG (sugars kkddddddddddkeke, PS)	–	54%	–
ATAGTTGTCTGGCTAG (sugars k3 d10 k3, PS)	52%	–	–
TGCCAATCAGATGTCA (sugars k3 d10 k3, PS)	22%	–	–
TGGAACTCTAGTGTCC (sugars k3 d10 k3, PS)	2%	–	–
CATGGTATTTTTCCGT (sugars k3 d10 k3, PS)	–	38% and 48%	target mRNA inhibition (MM.1R, 0.0625 µM): 4%; target mRNA inhibition (MM.1R, 0.25 µM): 36%; target mRNA inhibition (MM.1R, 4 µM): 66%
TAACGGTGTTTCAGAA (sugars k3 d10 k3, PS)	26%	–	–
AGCCAACTTATAGCAC (sugars k3 d10 k3, PS)	54%	–	–
ACCCACGAAGATTCAA (sugars k3 d10 k3, PS)	–	-17%	–
ACGCAAGGCTCGGAGC (sugars k3 d10 k3, PS)	21%	–	–
CCTGTGGTGGAACTCT (sugars k3 d10 k3, PS)	27%	–	–
GTAAGTGATAGGTATA (sugars k3 d10 k3, PS)	76% and 68%	–	–
GTCACGCCCGCAAAAG (sugars k3 d10 k3, PS)	39%	–	–

Sequence	target mRNA inhibition (SK-MEL-28, 4 µM)	target mRNA inhibition (MM.1R, 1 µM)	further results
CCTCAGTTTGTGAAGC (sugars e1 k2 d9 k2 e2, PS)	–	11%	–
AGGAATGAGGAAGCCG (sugars k3 d10 k3, PS)	56%	–	–
ATAAGATCCCACGAAG (sugars k3 d10 k3, PS)	-42%	–	–
AGCTAGTTCATTCCCT (sugars k3 d10 k3, PS)	48%	–	–
GTGATGTCAGGTTTTC (sugars kkdddddddddekeke, PS)	–	58%	target mRNA inhibition (MM.1R, 0.074 µM): 14%; target mRNA inhibition (MM.1R, 0.222 µM): 16%; target mRNA inhibition (MM.1R, 0.666 µM): 30%; target mRNA inhibition (MM.1R, 2 µM): 59%
GGCCAAATTGCAAAGG (sugars k3 d10 k3, PS)	48%	–	–
AGCTTGCAGGTCTGGT (sugars k3 d10 k3, PS)	53%	–	–
ATTTTATGGACCACGC (sugars k3 d10 k3, PS)	49%	–	–
TGGTTGGCTGGTCTTT (sugars kkdddddddddkekek, PS)	–	44%	–
CACCCACACAAGTCTT (sugars k4 d8 k4, PS)	14%	–	–
CACTATTAAGAACTTG (sugars k3 d10 k3, PS)	33%	–	–
CAAACCTTAAGCTATT (sugars k3 d10 k3, PS)	–	–	target mRNA inhibition (MM.1R, 0.0625 µM): -13%; target mRNA inhibition (MM.1R, 0.25 µM): -5%; target mRNA inhibition (MM.1R, 4 µM): 6%
TAGCATTCTTACAGCA (sugars k3 d10 k3, PS)	57%	7% and 20%	target mRNA inhibition (MM.1R, 0.0625 µM): -4% and 15%; target mRNA inhibition (MM.1R, 0.074 µM): 0%; target mRNA inhibition (MM.1R, 0.222 µM): 34%; target mRNA inhibition (MM.1R, 0.25 µM): -7% and -4%; target mRNA inhibition (MM.1R, 0.666 µM): 27%; target mRNA inhibition (MM.1R, 2 µM): 52%; target mRNA inhibition (MM.1R, 4 µM): 26% and 40%
ACTGTTACCGATGCTT (sugars kkdddddddddkdkdk, PS)	–	22% and 31%	–
GCTAGAACATGATGAG (sugars k3 d10 k3, PS)	14%	–	–
GGAGAATTTGGGCTGG (sugars k3 d10 k3, PS)	75%	–	–
AGAAACAGAGACGCGG (sugars k3 d10 k3, PS)	–	11%	–
GTCCACATACCTGAAA (sugars k3 d10 k3, PS)	–	8%	–
GTAAGAGGGCAGTCAA (sugars k3 d10 k3, PS)	44%	–	–
TTTACAGCATCTAAGG (sugars k3 d10 k3, PS)	34%	–	–
ACCCAATAGTCTAGCT (sugars k3 d10 k3, PS)	25%	–	–
ACACTTTGTACGGGTC (sugars k3 d10 k3, PS)	56%	–	–
ACGCCTTAATGTTCAG (sugars k3 d10 k3, PS)	77%	–	–
